From publication PMC12002301, “Discovery and functional characterization of a bombesin-type neuropeptide signaling system in an invertebrate” (Proceedings of the National Academy of Sciences of the …, 2025)

System: ArBNR2
Assay: Luminescence (GFP-aequorin Ca2+) assay, CHO-K1 cells coexpressing ArBNR2 and Gqs5
Format: cell-based, Asterias rubens
Conditions: ArBNR2, words; up to 10^-5 M
Method: Having investigated relationships of eleven A. rubens BN-type receptor candidates (ArBNR1-11) with BN-type, ET-type, and CCHa/EP-type receptors in other taxa, ArBNR1 was identified as the best candidate and therefore this was selected for experimental testing. However, two other receptors (ArBNR2 and ArBNR3) were also tested. The methods employed for functional characterization of A. rubens neuropeptide receptors have been described previously ([57]) and a description of the methods employed in this study is included in SI Appendix, SI Methods. […]
Functional characterization of A. rubens BN-type receptors
Two cDNAs encoding ArBNR1 and ArBNR3 were cloned from A. rubens radial nerve cord cDNA using Q5 polymerase (NEB, Cat. no. M0491S) and PCR with specific primers (SI Appendix, Table S5). To facilitate expression of the cloned receptors, the forward primers were designed to contain a partial Kozak consensus sequence (ACC) before the ATG start codon. Then, PCR products were inserted into the mammalian expression vector pcDNA 3.1(+) (Invitrogen, Cat. no.
V79020) that had been cut in advance with the restriction enzyme EcoRV (NEB, Cat. no. […] Successful ligation and the direction of the insert was determined by restriction enzyme digestion and sequencing (TubeSeq service; Eurofins Genomics). […]
identical to residues 18 - 270 of the protein XP_033631283.1, which was determined from genome […]

Substance: EPMPSSLALYIANLSP-NH2 [ArBNP65-81, C-terminally amidated 16-residue peptide predicted to be derived from residues 65 to 81 of ArBNP]
- peptide-induced luminescence: did not trigger luminescence

Substance: NYNRVFGPTY-NH2 [ArBN5-14, C-terminally amidated 10-residue peptide corresponding to the C-terminal region of ArBN]
- peptide-induced luminescence: did not trigger luminescence
